Assays:
Format in all cases: cell-based
S. aureus [1] = experiment: Dark toxicity against S. aureus, concentration study at 0 min (CFU counting); conditions: for Staph log CFU/ml (logarithmic reduction value) / Staph μM (concentration corresponding to the logarithmic reduction): in the dark, at 0 min; for Staph log CFU/ml (logarithmic reduction value): at the concentration of the μM column; for Staph μM (concentration corresponding to the logarithmic reduction): range tested 0-10 μM
Description: (§1) 500 μM stock solutions of the samples were prepared in ultra-pure water (5% DMSO) and used at different concentrations in the biological assays.
(§2) Two bacterial strains were used for the PACT studies; S. aureus as a gram-(+) bacterium and E. coli as a gram-(−) negative bacterium. Stock cultures were grown aerobically in 6 mL of nutrient broth incubated at 37° C. on a rotary shaker (~200 rpm) to obtain bacteria cultures. The incubation was maintained until the optical density of the culture at 600 nm was determined to be between 0.6 and 0.8. The resulting bacterial solution was centrifuged to remove the broth, and bacterial cells were washed three times with PBS. The solution of the bacteria was prepared by diluting with PBS to obtain […] bacteria solutions corresponding to ~10^9 and ~10^8 colony forming units (CFU)/mL, respectively.
(§3) The bacteria/photosensitizer mixtures were incubated in an oven equipped with a shaker for 30 min in the dark at 37° C. before plating. 100 μL of solution was taken from the suspension and was immediately inoculated on agar plates to determine the activity at 0 min without treatment. The number of colonies was then counted on each plate after 18 h of incubation at 37° C. Control treatments were performed in the absence of photosensitizer. All experiments were carried out three times. The data for CFU/mL were converted to the logarithmic form.

E. coli = experiment: Dark toxicity against E. coli, concentration study at 0 min (CFU counting); conditions: in the dark; for Ecoli log CFU/ml (logarithmic reduction value): at the concentration of the μM column; for Ecoli μM (concentration corresponding to the logarithmic reduction): range tested 0-15 μM
Description: as §1, §2, §3

[2] = test system: MCF-7 (human breast adenocarcinoma) cells; experiment: In vitro dark cytotoxicity, MCF-7 cells (anticancer studies); conditions: MCF-7, dark; for Min. Death conc. / Cell death: 24 h; for Cell death: at the Min. Death conc.
Description: MCF-7 (human breast adenocarcinoma) cells were cultured in Dulbecco's modified Eagle's medium-10% fetal bovine serum (DMEM-FBS) and PSA (penicillin/streptomycin/Amphotericin B) at 37° C. in an incubator (5% CO2) in 75 cm^2 vented flasks. The cultures were grown as a monolayer. The growth cells were transferred to well plates by trypsinizing with 0.25% trypsin-EDTA. The Pc stock concentrations were prepared by separately dissolving them in DMSO (1%) and diluting in water and the Pc gradient concentration was prepared by taking known aliquots from the stock and finally made up to marked volume with supplemented media with phenol red.
It was studied from […] both in the dark. 100 μL each of the newly prepared gradient Pcs concentration of 0 μg/mL (control), 5 μg/mL, 10 μg/mL, 20 μg/mL, 40 μg/mL, 60 μg/mL 80 μg/mL, 100 μg/mL and 120 μg/mL were administered on the incubated seeded cells. The 96 well cell culture plates containing the cells and the Pcs were incubated at 37° C. and 5% CO2 in the dark for 24 h. After 24 h treatment, the wells were rinsed with 100 μL DPBS. Cell survival was expressed as percentage of control cells (cells without Pcs). Post treatment cell viability was measured using the cell proliferation […] reagent (WST-1 assay) on a Synergy 2 multi-mode microplate reader (BioTek®) at a wavelength of 450 nm according to the following equation 1.

S. aureus [3] = experiment: Photodynamic inactivation of S. aureus (with irradiation); conditions: after irradiation 20 min at 0.5, 1 and 2.5 μM
Description: as §2
as §3, with “Pc solutions were prepared by dissolving in water containing 5% DMSO and applied over the range of 0-10 μM for S. aureus and 0-15 μM for E. coli. The bacteria/photosensitizer” for “The bacteria/photosensitizer”

Molecule	log reduction (dark toxicity) (S. aureus [1]; dark, 0 min, at 5 and 10 μM)	Staph log CFU/ml (logarithmic reduction value) (S. aureus [1]) [log CFU/ml]	Staph μM (concentration corresponding to the logarithmic reduction) (S. aureus [1]) [μM]	Ecoli log CFU/ml (logarithmic reduction value) (E. coli) [log CFU/ml]	Ecoli μM (concentration corresponding to the logarithmic reduction) (E. coli) [μM]	optimal concentration to kill the cancer cells [2] [µM]	Min. Death conc. [2] [µM]	Cell death [2] [%]	cancer cells killed at the optimal concentration ([2]; at the optimal concentration) [%]	log reduction (photocytotoxicity) (S. aureus [3])
C[n+]1c(-c2ccc(Oc3ccc4c(c3)C3=Nc5c6ccc(Oc7ccc(-c8[nH]c9cc(Cl)cc(Cl)c9[n+]8C)cc7)cc6c6[n]5[Zn][n]5c(c7ccc(Oc8ccc(-c9[nH]c%10cc(Cl)cc(Cl)c%10[n+]9C)cc8)cc7c5=NC5=NC(=N6)c6cc(Oc7ccc(-c8[nH]c9cc(Cl)cc(Cl)c9[n+]8C)cc7)ccc65)=NC4=N3)cc2)[nH]c2cc(Cl)cc(Cl)c21.[I-].[I-].[I-].[I-] [Compound 193]	9.63	9.61	4	8.79	1	40	40	72.7	72.7	9.63
C[n+]1c(-c2ccc(Oc3ccc4c(c3)C3=Nc5c6ccc(Oc7ccc(-c8[nH]c9cc(Br)cc(Cl)c9[n+]8C)cc7)cc6c6[n]5[Cu][n]5c(c7ccc(Oc8ccc(-c9[nH]c%10cc(Br)cc(Cl)c%10[n+]9C)cc8)cc7c5=NC5=NC(=N6)c6cc(Oc7ccc(-c8[nH]c9cc(Br)cc(Cl)c9[n+]8C)cc7)ccc65)=NC4=N3)cc2)[nH]c2cc(Br)cc(Cl)c21.[I-].[I-].[I-].[I-] [Compound 235]		9.25	10	8.79	12.5		10	34.8		
C[n+]1c(-c2ccc(Oc3ccc4c(c3)C3=Nc5c6ccc(Oc7ccc(-c8[nH]c9ccc(Cl)cc9[n+]8C)cc7)cc6c6[n]5[Zn][n]5c(c7ccc(Oc8ccc(-c9[nH]c%10ccc(Cl)cc%10[n+]9C)cc8)cc7c5=NC5=NC(=N6)c6cc(Oc7ccc(-c8[nH]c9ccc(Cl)cc9[n+]8C)cc7)ccc65)=NC4=N3)cc2)[nH]c2ccc(Cl)cc21.[I-].[I-].[I-].[I-] [Compound 242]		9.24	0.5	8.79	2.5		120	49.8		
C[n+]1c(-c2ccc(Oc3ccc4c(c3)C3=Nc5c6ccc(Oc7ccc(-c8[nH]c9ccc(Cl)cc9[n+]8C)cc7)cc6c6[n]5[Co][n]5c(c7ccc(Oc8ccc(-c9[nH]c%10ccc(Cl)cc%10[n+]9C)cc8)cc7c5=NC5=NC(=N6)c6cc(Oc7ccc(-c8[nH]c9ccc(Cl)cc9[n+]8C)cc7)ccc65)=NC4=N3)cc2)[nH]c2ccc(Cl)cc21.[I-].[I-].[I-].[I-] [Compound 243]		9.24	4	8.79	2.5		120	62.4		
C[n+]1c(-c2ccc(Oc3ccc4c(c3)C3=Nc5c6ccc(Oc7ccc(-c8[nH]c9ccc(Cl)cc9[n+]8C)cc7)cc6c6[n]5[Cu][n]5c(c7ccc(Oc8ccc(-c9[nH]c%10ccc(Cl)cc%10[n+]9C)cc8)cc7c5=NC5=NC(=N6)c6cc(Oc7ccc(-c8[nH]c9ccc(Cl)cc9[n+]8C)cc7)ccc65)=NC4=N3)cc2)[nH]c2ccc(Cl)cc21.[I-].[I-].[I-].[I-] [Compound 244]		9.24	10	8.79	15		80	90.8		
Tetrakis [4-(4-(5-bromo-1H-benzo[d]imidazol-2-yl)phenoxy phthalocyaninato] copper(II) tetraiodide [Compound 219]		9.15	10	8.78	12.5		10	36.9		
Tetrakis [4-(4-(5-bromo-1H-benzo[d]imidazol-2-yl)phenoxy phthalocyaninato] zinc(II) tetraiodide [Compound 217]		9.15	1	8.78	5		5	40.1		
Tetrakis [4-(4-(5-bromo-1H-benzo[d]imidazol-2-yl)phenoxy phthalocyaninato] zinc(II) tetraiodide [Compound 218]		9.15	0.5	8.78	1		10	56.6		
